# According to patent US20250122253A1, “REGULATING MICROTUBULE DYNAMICS AS A THERAPEUTIC TARGET FOR NERVE REPAIR” (City University of Hong Kong, priority 2023, published 2025):
# What was measured:
# [1] = test system: tubulin; conditions: epothilone B: cultured rat cortical neurons; cited from earlier work
# [2] = test system: spinal neurons; conditions: background statement; paclitaxel in rats; cited from earlier work
# [3] = chronic exposure, high doses in animals; cited from earlier work
# [4] = test system: pHDAC5; assay: Western blot of pHDAC5 in sciatic nerve segments 0-6 mm distal to the crush site; format: in vivo, mice; conditions: AAV2/9-Fmn2-shRNA mice; 3 days after injury
# Description: (§1) Ipsilateral L4/5 DRG neurons were harvested at various time points following sciatic nerve injury as indicated. Sciatic nerves were harvested 3 days after crush injury and segmented into 0-6 mm distal to the crush site. Each protein sample was pooled from 3 mice. DRG neurons and segmented sciatic nerves were mechanically dissociated with protein lysis buffer, and subjected to measurement of protein concentration using protein BCA assay (Pierce). Protein lysate (30 μg) was separated on 4-12% NuPAGE Tris-Glycine precast gel (Invitrogen). Protein was then transferred onto a PVDF membrane (Bio-Rad) and blocked with 5% non-fat milk (Bio-Rad) in TBS-T. The membrane was incubated with anti-FMN2 (1:500; ProteinTech), anti-phosphorylated HDAC5 (1:500, ThermoFisher), anti-HDAC5 (1:500, Novus Biologicals), anti-acetylated tubulin (1:10,000; Sigma-Aldrich), anti-NeuN (1:500; Millipore), anti-SOX10 (1:500; Abcam), anti-IBA-1 (1:1,000; Wako), anti-GFP (1:1,000; Cell Signaling), and anti-GAPDH antibodies (1:2,000; ProteinTech) as loading controls. The membrane was incubated with secondary antibody conjugated with horseradish peroxidase (1:2,000; Thermo-Fisher). Signals were detected using West Femto Maximum Sensitivity Substrate Kit (Thermo Scientific). […] Band intensities were measured using Image Lab software (Bio-Rad). […]
# [5] = test system: regenerating sensory axons of the injured sciatic nerve; assay: Sciatic nerve pinch test after sciatic nerve crush injury; format: in vivo, mice; conditions: AAV2/9-Fmn2-shRNA mice; 3 days after sciatic nerve injury; LMK-235 20 mg/kg intraperitoneally 3 consecutive days
# Description: Sciatic nerve crush or transection injury was performed in anesthetized adult male C57BL/6 or Fmn2^−/− mice (8-12 weeks old) as previously described. Briefly, the left sciatic nerve was exposed at mid-thigh level. For crush injury, the exposed nerve was crushed with smooth forceps (Dumont #5/45 Forceps, Fine Science Tools) at the sciatic notch for 15 seconds. For sciatic nerve transection, an epineural suture was first made at the level of external rotator muscle, just distal to the sciatic notch. The exposed nerve was then transected using a pair of ophthalmic microscissors just distal to the suture. After injury, the overlying muscle and skin were sutured using a 5-0 suture (Ethilon), and the mice were allowed to recover on a heated pad, and returned to their home cages after recovery. The surgeon was blinded to the genotypes and treatments.
# For in vivo gene silencing of Fmn2 and/or Hdac5 in DRGs, AAV2/9-Fmn2-shRNA and AAV2/9-Hdac5-shRNA at a titer of 5×10^12 vg/mL (OBIO Technology) were injected into the sciatic nerve directly through a glass micropipette using a microinjector (Harvard Apparatus) two weeks before sciatic nerve crush injury. The mice were then subjected to sciatic nerve crush injury and sciatic nerve pinch test (FIG. 4) and animal behavioural assessment (FIG. 15). The expression of shRNAs was under the control of the U6 promoter, and the expression of the reporter gene eGFP was under the control of the CAG promoter. AAV2/9-scr-shRNA (Packgene) was used as a negative control (see FIG. 22 for the shRNA sequences). On a separate batch of animals, the knockdown efficiency in DRGs was assessed by Western blot analysis in AAV2-Fmn2-shRNA and AAV2-Hdac5-shRNA mice two weeks after the AAV injection (FIGS. S8B and S9). […]
# Sciatic nerve pinch test was performed in the ipsilateral side 3 days after sciatic nerve crush injury. […] The distance (in mm) representing the length of axonal regrowth was recorded from the crushed site to the most distal point of sciatic nerve whereas initial withdrawal reflex was observed after pinching. […]
# [6] = test system: acetylated tubulin; assay: Western blot of acetylated tubulin/total tubulin in sciatic nerve segments 0-6 mm distal to the crush site; format: in vivo, mice; conditions: AAV2/9-Fmn2-shRNA mice; 3 days after injury
# Description: as §1
# [7] = test system: damaged axons; conditions: background statement; cited from earlier work
structure (smiles),measurement,setting,value
C/C(=C\c1csc(C)n1)[C@@H]1C[C@@H]2O[C@]2(C)CCC[C@H](C)[C@H](O)[C@@H](C)C(=O)C(C)(C)[C@@H](O)CC(=O)O1 [Epothilone B],tubulin polymerization at growing tips / growth cones,[1],induced rapid tubulin polymerization
same,axon regeneration after spinal cord injury,[2],promoted in vivo axon regeneration
same,peripheral neuropathy,[3],cause chemotherapy-induced peripheral neuropathy
Cc1cc(C)cc(C(=O)NOCCCCCC(=O)NO)c1 [LMK-235],reduction of pHDAC5 protein expression in AAV2/9-Fmn2-shRNA mice,[4],70%
same,effect on the axon regrowth-promoting effect in AAV2/9-Fmn2-shRNA mice,[5],completely eliminated the axon regrowth-promoting effect
same,acetylated tubulin expression in sciatic nerves of AAV2/9-Fmn2-shRNA mice,[6],increased acetylated tubulin expression
CC(=O)O[C@H]1C(=O)[C@@]2(C)[C@H]([C@H](OC(=O)c3ccccc3)[C@]3(O)C[C@H](OC(=O)[C@H](O)[C@@H](NC(=O)c4ccccc4)c4ccccc4)C(C)=C1C3(C)C)[C@]1(OC(C)=O)CO[C@@H]1C[C@@H]2O [paclitaxel],tubulin polymerization at growing tips / growth cones,[1],induced active tubulin polymerization
same,axon regeneration after spinal cord injury,[2],facilitated in vivo axon regeneration
O=C(CCCCCN1C(=O)c2cccc3cccc(c23)C1=O)NO [scriptaid],axonal regrowth after PNI,[7],markedly stalled axonal regrowth
